{"source": "patent US20080305186A1", "about": "“Method and Composition for the Treatment of Cardiac Hypertrophy” (BOARD OF REGENTS, THE UNIVERSITY OF TEXAS SYSTEM, priority 2007, published 2008)", "test_system": "cardiac gene expression", "test": "Microarray analysis of cardiac gene expression (GeneChip Mouse Genome 430 2.0)", "assay_type": "in vivo, mice", "description": "Microarray Sample Preparation and Analysis. Animal hearts were rapidly removed, and the atria and right ventricles were cut and immediately plunged into TRIzol Reagent (Life Technologies). Total RNA was isolated following the manufacturer's instructions, purified by phenol-chloroform extraction and then ethanol precipitation, and 20 μg further processed for microarray analysis. Briefly, cDNA synthesis, in vitro transcription, and labeling and fragmentation to produce the oligonucleotide probes were performed as instructed by the GeneChip manufacturer (Affymetrix). The probes were first hybridized to a test array (Affymetrix) and then to the GeneChip Mouse Genome 430 2.0 Array, using the GeneChip Hybridization Oven 640. The chips were washed in a GeneChip Fluidics Station 450 (Affymetrix), and the results were visualized with a GeneChip G7 scanner (Affymetrix). RMA normalization, pairwise comparisons, Student's t test and Benjamini and Hochberg correction were subsequently performed using GeneSifter (VizX Labs, Seattle, Wash.) and Spotfire DecisionSite 8.3 (Spotfire, Inc., Somerville, Mass.).\nEffects on Gene Expression Profile. […] One mouse heart was used for each array, and was performed in triplicate, generating a total of 12 arrays. GeneSifter was used to perform RMA normalization, pairwise comparisons of averaged signal intensity values, and Student's t-test with Benjamini and Hochberg correction, and Spotfire was used to perform pairwise comparisons. […] Additionally, genes that were altered between any two N or cardiac hypertrophy samples were removed, as these alterations most likely represented normal variations between mice.", "key": {"[1]": {"settings": "CH vs drug-treated isoproterenol mice"}}}
{"smiles": "C[C@H]1c2cccc(O)c2C(=O)C2=C(O)[C@]3(O)C(=O)C(C(N)=O)=C(O)[C@@H](N(C)C)[C@@H]3[C@@H](O)[C@@H]21", "note": "[doxycycline]", "values": [{"measurement": "Number of Altered Genes, Average FC (1.5-fold)", "setting": "[1]", "result": 2929}, {"measurement": "Number of Altered Genes, Average FC (2-fold)", "setting": "[1]", "result": 417}, {"measurement": "Number of Altered Genes, Minus disease variability", "setting": "[1]", "result": 578}, {"measurement": "Number of Altered Genes, Minus natural variability", "setting": "[1]", "result": 994}, {"measurement": "Number of Altered Genes, Reproducible", "setting": "[1]", "result": 497}, {"measurement": "Number of Altered Genes, Student's t test", "setting": "[1]", "result": 2274}, {"measurement": "Number of Altered Genes, Correction", "setting": "CH vs drug-treated isoproterenol mice, Benjamini and Hochberg", "result": 2034}, {"measurement": "Number of Altered Genes, Disease-specific", "setting": "CH vs drug-treated isoproterenol mice, of 779 genes altered N vs CH, altered in the reverse direction", "result": 327}, {"measurement": "FC EST", "setting": "GenBank AA419994, vs mice given only isoproterenol", "result": "−1.7"}, {"measurement": "FC Metallothionein 2 (Mt2)", "setting": "GenBank AA796766, vs mice given only isoproterenol", "result": "−5.5"}, {"measurement": "FC Prostaglandin D synthetase (Ptgds)", "setting": "GenBank AB006361, vs mice given only isoproterenol", "result": "−2.0"}, {"measurement": "FC Potassium channel, subfamily K, member 3 (Kcnk3)", "setting": "GenBank AF065162, vs mice given only isoproterenol", "result": 1.7}, {"measurement": "FC Small inducible cytokine A9 (Scya9) (Ccl9) (Mip-1[…])", "setting": "GenBank AF128196, vs mice given only isoproterenol", "result": "−2.0"}, {"measurement": "FC Group V phospholipase A2 (Pla2g5)", "setting": "GenBank AF162713, vs mice given only isoproterenol", "result": 2.2}, {"measurement": "FC GABA-A receptor-associated protein-like protein 1 (Gabarapl1)", "setting": "GenBank AF180518, 1st listing, vs mice given only isoproterenol", "result": "−3.6"}, {"measurement": "FC GABA-A receptor-associated protein-like protein 1 (Gabarapl1)", "setting": "GenBank AF180518, 2nd listing, vs mice given only isoproterenol", "result": "−3.1"}, {"measurement": "FC Toll-like receptor 4 (TLR4)", "setting": "GenBank AF185285, heart, drug + isoproterenol vs isoproterenol-only mice, CH vs normal FC 2.2", "result": "−1.9", "unit": "fold"}, {"measurement": "FC TSC22-related inducible leucine zipper 3c (Tilz3c) (Dsip1)", "setting": "GenBank AF201289, heart, drug + isoproterenol vs isoproterenol-only mice, CH vs normal FC 2.7", "result": "−2.3", "unit": "fold"}, {"measurement": "FC Homeodomain interacting protein kinase 2 (Hipk2)", "setting": "GenBank AF208292, vs mice given only isoproterenol", "result": 1.9}, {"measurement": "FC Cytochrome b-5 reductase (Cyb5r3)", "setting": "GenBank AF332060, vs mice given only isoproterenol", "result": 1.7}, {"measurement": "FC Transcription factor myocardin (Myocd)", "setting": "GenBank AF384055, heart, drug + isoproterenol vs isoproterenol-only mice, CH vs normal FC −1.6", "result": 4.0, "unit": "fold"}, {"measurement": "FC F-box-WD40 repeat protein 6 (Fbxw6)", "setting": "GenBank AF391192, vs mice given only isoproterenol", "result": 2.9}, {"measurement": "FC F-box only protein 32 (Fbxo32)", "setting": "GenBank AF441120, vs mice given only isoproterenol", "result": "−3.3"}, {"measurement": "FC FK506 binding protein 5 (51 kDa) (Fkbp5)", "setting": "GenBank AI098139, vs mice given only isoproterenol", "result": "−4.1"}, {"measurement": "FC Myosin binding protein C, fast-type (Mybpc2)", "setting": "GenBank AI326984, vs mice given only isoproterenol", "result": "−3.2"}, {"measurement": "FC Heparan sulfate 2-O-sulfotransferase 1 (Hs2st1)", "setting": "GenBank AI451467, vs mice given only isoproterenol", "result": 2.2}, {"measurement": "FC EST", "setting": "GenBank AI467657, 1st listing, vs mice given only isoproterenol", "result": "−1.9"}, {"measurement": "FC EST", "setting": "GenBank AI467657, 2nd listing, vs mice given only isoproterenol", "result": "−1.6"}, {"measurement": "FC EST", "setting": "GenBank AI480750, vs mice given only isoproterenol", "result": 1.7}, {"measurement": "FC Interferon activated gene 205 (Ifi205)", "setting": "GenBank AI481797, vs mice given only isoproterenol", "result": "−2.2"}, {"measurement": "FC Protein tyrosine phosphatase, receptor-type, F interacting protein, binding protein 2 (Ppfibp2)", "setting": "GenBank AI503166, vs mice given only isoproterenol", "result": "−2.0"}, {"measurement": "FC Dipeptidase 1 (Dpep1)", "setting": "GenBank AI647687, vs mice given only isoproterenol", "result": "−2.0"}, {"measurement": "FC Homocysteine-inducible, endoplasmic reticulum stress-inducible, ubiquitin-like domain member 1 (Herpud1)", "setting": "GenBank AI835088, vs mice given only isoproterenol", "result": "−3.0"}, {"measurement": "FC Sulfotransferase family 1A, phenol-preferring, member 1 (Sult1a1)", "setting": "GenBank AK002700, vs mice given only isoproterenol", "result": "−3.7"}, {"measurement": "FC GPI-ahored HDL-binding protein 1 (Gpihbp1)", "setting": "GenBank AK003305, vs mice given only isoproterenol", "result": "−1.8"}, {"measurement": "FC Ets variant gene 5 (Etv5)", "setting": "GenBank AK003461, vs mice given only isoproterenol", "result": "−2.0"}, {"measurement": "FC Peptidylprolyl isomerase (cyclophilin)-like 1 (Ppil1)", "setting": "GenBank AK004331, vs mice given only isoproterenol", "result": 1.8}, {"measurement": "FC Extra cellular link domain-containing 1 (Xkd1)", "setting": "GenBank AK004726, vs mice given only isoproterenol", "result": "−1.8"}, {"measurement": "FC SRY-box containing gene 17 (Sox17)", "setting": "GenBank AK004781, vs mice given only isoproterenol", "result": "−1.6"}, {"measurement": "FC Phospholipase A2 group VII (platelet-activating factor acetylhydrolase, plasma) (Pla2g7)", "setting": "GenBank AK005158, vs mice given only isoproterenol", "result": "−2.2"}, {"measurement": "FC Methyl-CpG binding domain protein 1 (Mbd1)", "setting": "GenBank AK007371, 1st listing, vs mice given only isoproterenol", "result": "−2.5"}, {"measurement": "FC Methyl-CpG binding domain protein 1 (Mbd1)", "setting": "GenBank AK007371, 2nd listing, vs mice given only isoproterenol", "result": "−2.0"}, {"measurement": "FC Homeobox only domain (Hod)", "setting": "GenBank AK009007, vs mice given only isoproterenol", "result": 1.5}, {"measurement": "FC F-box and leucine-rich repeat protein 20 (Fbxl20)", "setting": "GenBank AK012109, vs mice given only isoproterenol", "result": "−2.0"}, {"measurement": "FC Dual specificity phosphatase 4 (Dusp4)", "setting": "GenBank AK012530, vs mice given only isoproterenol", "result": "−2.4"}, {"measurement": "FC Hydroxyacylglutathione hydrolase-like (Haghl)", "setting": "GenBank AK012748, vs mice given only isoproterenol", "result": 2.0}, {"measurement": "FC Leucine-rich repeat-containing 52 (Lrrc52)", "setting": "GenBank AK015134, vs mice given only isoproterenol", "result": "−2.6"}, {"measurement": "FC Sphingosine kinase 2 (Sphk2)", "setting": "GenBank AK016616, vs mice given only isoproterenol", "result": 1.5}, {"measurement": "FC DNA-damage-inducible transcript 4 (Ddit4)", "setting": "GenBank AK017926, vs mice given only isoproterenol", "result": "−5.6"}, {"measurement": "FC Kelch-like 24 (Khl24)", "setting": "GenBank AK018314, vs mice given only isoproterenol", "result": "−2.1"}, {"measurement": "FC Transforming, acidic coiled-coil containing protein (Tacc1)", "setting": "GenBank AK019530, heart, drug + isoproterenol vs isoproterenol-only mice, CH vs normal FC −2.1", "result": 3.2, "unit": "fold"}, {"measurement": "FC Protein arginine N-methyltransferase 1 (Prmt1)", "setting": "GenBank AK020120, vs mice given only isoproterenol", "result": 1.8}, {"measurement": "FC Hydroxyacylglutathione hydrolase-like (Haghl)", "setting": "GenBank AK021220, vs mice given only isoproterenol", "result": 1.8}, {"measurement": "FC Phosphodiesterase 7A (Pde7a)", "setting": "GenBank AU015378, vs mice given only isoproterenol", "result": "−2.2"}, {"measurement": "FC p53 regulated PA26 nuclear protein (Sestrin 1) (Sesn1)", "setting": "GenBank AV016566, vs mice given only isoproterenol", "result": "−2.3"}, {"measurement": "FC EST", "setting": "GenBank AV032877, vs mice given only isoproterenol", "result": "−1.5"}, {"measurement": "FC Ectonucleoside triphosphate diphosphohydrolase 1 (Entpd1)", "setting": "GenBank AV117919, vs mice given only isoproterenol", "result": "−2.1"}, {"measurement": "FC F-box and leucine-rich repeat protein 20 (Fbxl20)", "setting": "GenBank AV120094, vs mice given only isoproterenol", "result": "−1.5"}, {"measurement": "FC Transthyretin (Ttr)", "setting": "GenBank AV152953, heart, drug + isoproterenol vs isoproterenol-only mice, CH vs normal FC 4.4", "result": "−2.8", "unit": "fold"}, {"measurement": "FC Solute carrier family 10 (sodium/bile acid cotransporter family), member 6 (Slc10a6)", "setting": "GenBank AV244484, vs mice given only isoproterenol", "result": "−5.3"}]}
